The results in this text go back to patent US10898547B2, “Method of treatment of breast or colon cancer by administering muscle stimulated myokines” (Unicorn Therapeutics, LLC, priority 2016, dated 2021).

Holding throughout (type): cell-based
Data set [1] deals with HT-29. Briefly: 5′FU dosage determination in HT-29 cells, 96-well plate. The following applies: HT-29, after 48 hrs.
In data set [2] the test system is HepG2. The data set is described as follows: Western blot of metabolic markers (pAMPK, pAKT, pACC) in HepG2 cells. The arrangement: dose or concentration left out as unconfirmed. The following applies: HepG2, sorafenib (FIG. 6A).
Data set [3] concerns Huh7. Briefly: WST cellular proliferation assay in Huh7 HCC cells. The conditions noted are these: 24-48 hrs, sorafenib 1, 2 and 5 micromolar.
The test system of data set [4] is HepG2. The data set is described as follows: WST cellular proliferation assay in HepG2 HCC cells. The following applies: 24-48 hrs, sorafenib 1, 2 and 5 micromolar.

On to `O=c1[nH]cc(F)c(=O)[nH]1` [5′FU, 5-fluorouracil], for which the “concentration showing the best effect without suggestion of cytotoxicity” value in data set [1] turned out to be 25 µM.
On to `CNC(=O)c1cc(Oc2ccc(NC(=O)Nc3ccc(Cl)c(C(F)(F)F)c3)cc2)ccn1` [sorafenib], for which the pAMPK expression entry in data set [2] is “increase”. Besides, the cellular proliferation result in data set [3] and in data set [4] was “decrease” in each case.
